Drawing on patent US9045493B2, “Furo[3,2-b]- and thieno[3,2-b]pyridin derivatives” (Merck Patent GmbH, priority 2012, dated 2015), this text covers IC50 for 34 compounds.

Each structure is given as a SMILES string.

One assay concerns the target T1, IKKε (Homo sapiens, UniProt Q14164).
T1 sequence (Q14164 1-716): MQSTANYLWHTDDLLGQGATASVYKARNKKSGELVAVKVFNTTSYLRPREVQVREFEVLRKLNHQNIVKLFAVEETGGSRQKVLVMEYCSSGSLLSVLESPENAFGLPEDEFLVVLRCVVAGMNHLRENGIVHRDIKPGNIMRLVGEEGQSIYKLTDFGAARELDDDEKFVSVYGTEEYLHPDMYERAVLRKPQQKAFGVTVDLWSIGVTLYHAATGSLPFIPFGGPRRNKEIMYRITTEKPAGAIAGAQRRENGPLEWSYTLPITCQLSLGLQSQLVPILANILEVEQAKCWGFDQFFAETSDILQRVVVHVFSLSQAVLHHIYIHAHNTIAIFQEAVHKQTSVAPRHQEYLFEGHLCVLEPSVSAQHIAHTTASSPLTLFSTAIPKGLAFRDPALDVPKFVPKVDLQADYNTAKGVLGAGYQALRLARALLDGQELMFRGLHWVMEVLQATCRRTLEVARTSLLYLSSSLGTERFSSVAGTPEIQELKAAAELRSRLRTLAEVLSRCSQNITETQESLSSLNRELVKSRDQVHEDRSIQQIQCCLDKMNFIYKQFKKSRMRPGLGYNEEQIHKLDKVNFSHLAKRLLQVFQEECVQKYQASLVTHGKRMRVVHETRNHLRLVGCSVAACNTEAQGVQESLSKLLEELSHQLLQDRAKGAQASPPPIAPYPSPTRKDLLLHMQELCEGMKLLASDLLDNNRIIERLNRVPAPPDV
The assay is described as follows: IKKε kinase assay (384-well Flashplate). The class given is biochemical. The settings on record: 10 μM ATP, 2 hours at 30° C.; read-out: IKKε enzyme assay IC50. The procedure: The kinase assay is performed either as 384-well Flashplate assay (for e.g. Topcount measurement).
1 nM IKKε, 800 nM biotinylated IκBα(19-42) peptide (Biotin-C6-C6-[…]) and 10 μM ATP (spiked with 0.3 μCi ^33P-ATP/well) are incubated in a total volume of 50 μl (10 mM MOPS, 10 mM Mg-acetat, 0.1 mM EGTA, 1 mM Dithiothreitol, 0.02% Brij35, 0.1% BSA, 0.1% BioStab, pH 7.5) with or without test compound for 2 hours at 30° C. The reaction is stopped with 25 μl 200 mM EDTA. After 30 Min at room temperature the liquid is removed and each well washed thrice with 100 μl 0.9% sodium chloride solution. […] Radioactivity is measured with Topcount (PerkinElmer). Results (e.g. IC50-values) are calculated with program tools provided by the IT-department (e.g. AssayExplorer, Symyx).

Assay [1] has as its target T2, TANK binding kinase (TBK1) (Homo sapiens, UniProt Q9UHD2).
T2 sequence (Q9UHD2 1-729): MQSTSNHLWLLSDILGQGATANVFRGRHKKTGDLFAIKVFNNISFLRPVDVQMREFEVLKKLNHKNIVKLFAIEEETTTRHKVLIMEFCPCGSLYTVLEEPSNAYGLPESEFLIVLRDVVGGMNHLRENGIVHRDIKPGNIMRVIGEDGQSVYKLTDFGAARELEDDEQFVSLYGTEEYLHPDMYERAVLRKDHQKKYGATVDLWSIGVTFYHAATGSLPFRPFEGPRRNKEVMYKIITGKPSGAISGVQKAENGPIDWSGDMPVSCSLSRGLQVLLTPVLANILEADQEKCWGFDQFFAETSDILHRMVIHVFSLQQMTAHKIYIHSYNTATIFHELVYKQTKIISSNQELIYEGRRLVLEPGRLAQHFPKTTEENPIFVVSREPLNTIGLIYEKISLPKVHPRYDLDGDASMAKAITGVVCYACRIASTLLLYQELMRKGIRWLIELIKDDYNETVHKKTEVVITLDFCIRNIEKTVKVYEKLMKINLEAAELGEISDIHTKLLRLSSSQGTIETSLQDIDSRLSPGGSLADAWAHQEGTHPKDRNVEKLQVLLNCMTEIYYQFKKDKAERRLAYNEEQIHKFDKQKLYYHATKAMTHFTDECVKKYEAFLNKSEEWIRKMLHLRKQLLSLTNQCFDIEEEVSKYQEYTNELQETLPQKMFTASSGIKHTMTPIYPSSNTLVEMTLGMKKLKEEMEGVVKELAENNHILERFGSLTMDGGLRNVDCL
The assay is described as follows: TBK1 enzyme assay (384-well Flashplate kinase assay). The class given is biochemical. The settings on record: 10 μM ATP, 120 Min at 30° C. Here is the method: The kinase assay is performed as 384-well Flashplate assay (for e.g. Topcount measurement.
0.6 nM TANK binding kinase (TBK1), 800 nM biotinylated MELK-derived peptide (Biotin-Ah-Ah-[…]) and 10 μM ATP (spiked with 0.25 μCi ^33P-ATP/well) are incubated in a total volume of 50 μl (10 mM MOPS, 10 mM Mg-acetat, 0.1 mM EGTA, 1 mM DTT, 0.02% Brij35, 0.1% BSA, pH 7.5) with or without test compound for 120 Min at 30° C. The reaction is stopped with 25 μl 200 mM EDTA. After 30 Min at room temperature the liquid is removed and each well washed thrice with 100 μl 0.9% sodium chloride solution. Nonspecific reaction is determined in presence of 100 nM Staurosporine. Radioactivity is measured in a Topcount (PerkinElmer). Results (e.g. IC50-values) are calculated with program tools provided by the IT-department (e.g. AssayExplorer, Symyx).

Consider `CN1CCN(C(=O)c2ccc(-c3cc4nccc(-c5ccc(OC6CCOC6)c(C#N)c5)c4o3)cc2)CC1` (centres unmarked) [Compound A42], for which the IC50 (at IKKε; in assay [1]) was less than 300 nM throughout.
`N#Cc1cc(-c2ccnc3cc(-c4ccc(C(=O)N5CCNCC5)cc4)oc23)ccc1OC1CCOC1` (centres unmarked) [Compound A43]: the IC50 (on IKKε; in assay [1]) was less than 300 nM in each case.
In the case of `CN(CCO)C(=O)c1ccc(-c2cc3nccc(-c4ccc(OC5CCOCC5)c(C#N)c4)c3s2)cc1` [Compound A44], the IC50 (on IKKε; in assay [1]) was less than 300 nM in each case.
On to `CN1CCN(C(=O)c2ccc(-c3cc4nccc(-c5ccc(OC6CCOCC6)c(C#N)c5)c4s3)cc2)CC1` [Compound A45], for which the IC50 (on IKKε; in assay [1]) was less than 300 nM in each case.
On to `Cn1cc(-c2cc3nccc(-c4ccc(OC5CCOCC5)c(C#N)c4)c3o2)cn1` [Compound A46], for which the IC50 (at IKKε; in assay [1]) was less than 300 nM throughout.
`N#Cc1cc(-c2ccnc3cc(-c4ccc(CN5CCOCC5)s4)oc23)ccc1OC1CCOCC1` [Compound A47]: the IC50 (at IKKε; in assay [1]) was less than 300 nM throughout.
As to `N#Cc1cc(-c2ccnc3cc(-c4cnn(CCN5CCOCC5)c4)oc23)ccc1OC1CCOCC1` [Compound A48], the IC50 (at IKKε; in assay [1]) was less than 300 nM in each case.
With `Cc1ccc(-c2cc3nccc(-c4ccc(OC5CCOCC5)c(C#N)c4)c3o2)o1` [Compound A49], the 50% inhibitory concentration (IC50) (on IKKε; in assay [1]) was less than 300 nM in each case.
For `COc1cc(-c2cc3nccc(-c4ccc(OCC5CC5)c(C#N)c4)c3o2)ccc1C(=O)N1CCNCC1` [Compound A50], the IC50 (at IKKε; in assay [1]) was less than 300 nM each time.
Turning to `CCN(CCN(C)C)C(=O)c1ccc(-c2cc3nccc(-c4ccc(OC5CCOCC5)c(C#N)c4)c3s2)cc1OC` [Compound A51], the IC50 (at IKKε; in assay [1]) was less than 300 nM each time.
For the compound `COc1cc(-c2cc3nccc(-c4ccc(OC5CCOCC5)c(C#N)c4)c3s2)ccc1C(=O)N1CCNCC1` [Compound A52], the half-inhibitory concentration (IC50) (at IKKε; in assay [1]) was less than 300 nM each time.
With `N#Cc1cc(-c2ccnc3cc(-c4ccc(C(=O)N5CCNCC5)cc4)sc23)ccc1OC1CCOCC1` [Compound A53], the 50% inhibitory concentration (IC50) (on IKKε; in assay [1]) was less than 300 nM throughout.
As for `N#Cc1cc(-c2ccnc3cc(-c4cnn(CCCO)c4)oc23)ccc1OC1CCOCC1` [Compound A54], the IC50 (on IKKε; in assay [1]) was less than 300 nM each time.
In the case of `Cc1occc1-c1cc2nccc(-c3ccc(OC4CCOCC4)c(C#N)c3)c2o1` [Compound A55], the 50% inhibitory concentration (IC50) on IKKε is less than 300 nM; in assay [1] it was 300 to 3000 nM.
For `N#Cc1cc(-c2ccnc3cc(-c4ccc(N5CCOCC5)nc4)oc23)ccc1OC1CCOCC1` [Compound A56] the same measures were less than 300 nM and less than 300 nM.
For `N#Cc1cc(-c2ccnc3cc(-c4cnc5ccccc5c4)oc23)ccc1OC1CCOCC1` [Compound A57] the same measures were 300 to 3000 nM and 3000 to 50000 nM.
For `N#Cc1cc(-c2ccnc3cc(-c4cccc5[nH]ccc45)oc23)ccc1OC1CCOCC1` [Compound A58] the same measures were less than 300 nM and less than 300 nM.
`CC(CO)(CCl)COc1ccc(-c2ccnc3cc(-c4ccc(C(=O)N5CCNCC5)cc4)oc23)cc1C#N` (centres unmarked) [Compound A59]: the IC50 (at IKKε; in assay [1]) was less than 300 nM each time.
`CC(CO)(CO)COc1ccc(-c2ccnc3cc(-c4ccc(C(=O)N5CCNCC5)cc4)oc23)cc1C#N` [Compound A60]: the IC50 was less than 300 nM on IKKε and 300 to 3000 nM in assay [1].
The matching figures for `CN1CCN(C(=O)c2ccc(-c3cc4nccc(-c5ccc(OCC6(C)COC6)c(C#N)c5)c4o3)cc2)CC1` [Compound A61]: less than 300 nM and less than 300 nM.
For `CN(CCO)C(=O)c1ccc(-c2cc3nccc(-c4ccc(OCC5(C)COC5)c(C#N)c4)c3o2)cc1` [Compound A62] the same measures were less than 300 nM and less than 300 nM.
As to `CN(CCO)C(=O)c1ccc(-c2cc3nccc(-c4ccc(OC5CCOC5)c(C#N)c4)c3o2)cc1` (centres unmarked) [Compound A63], the IC50 (at IKKε; in assay [1]) was less than 300 nM throughout.
Take `CCOc1ncccc1-c1cc2nccc(-c3ccc(OC4CCOCC4)c(C#N)c3)c2o1` [Compound A64]: the half-maximal inhibitory concentration (IC50) (at IKKε; in assay [1]) was less than 300 nM throughout.
`N#Cc1cc(-c2ccnc3cc(-c4cncc(C(=O)N5CCOCC5)c4)oc23)ccc1OC1CCOCC1` [Compound A65]: the IC50 (on IKKε; in assay [1]) was less than 300 nM in each case.
`COc1cncc(-c2cc3nccc(-c4ccc(OC5CCOCC5)c(C#N)c4)c3o2)c1` [Compound A66]: the IC50 at IKKε was less than 300 nM; in assay [1] it was 300 to 3000 nM.
The matching figures for `N#Cc1cc(-c2ccnc3cc(-c4cnn(C5CCN(CCO)CC5)c4)oc23)ccc1OC1CCOCC1` [Compound A67]: less than 300 nM and less than 300 nM.
As to `COc1cc(-c2cc3nccc(-c4ccc(OC5CCOC5)c(C#N)c4)c3o2)ccc1C(=O)N1CCNCC1` (centres unmarked) [Compound A68], the IC50 (on IKKε; in assay [1]) was less than 300 nM in each case.
Regarding `N#Cc1cc(-c2ccnc3cc(-c4cnn(C5CCN(CCCO)CC5)c4)oc23)ccc1OC1CCOCC1` [Compound A69], the concentration for half-maximal inhibition (IC50) (at IKKε; in assay [1]) was less than 300 nM in each case.
`CS(=O)(=O)c1cncc(-c2cc3nccc(-c4ccc(OC5CCOCC5)c(C#N)c4)c3o2)c1` [Compound A70]: the IC50 (on IKKε; in assay [1]) was 300 to 3000 nM throughout.
Take `N#Cc1cc(-c2ccnc3cc(-c4ccc5cn[nH]c5c4)oc23)ccc1OC1CCOCC1` [Compound A71]: the IC50 is less than 300 nM at IKKε and 300 to 3000 nM in assay [1].
For the compound `N#Cc1cc(-c2ccnc3cc(-c4ccc(C(=O)N5CCNCC5)cc4)oc23)ccc1N1CCCC1` [Compound A72], the IC50 (on IKKε; in assay [1]) was less than 300 nM each time.
As for `N#Cc1cc(-c2ccnc3cc(-c4ccc(C(=O)N5CCNCC5)cc4)oc23)ccc1N1CCOCC1` [Compound A73], the half-maximal inhibitory concentration (IC50) (on IKKε; in assay [1]) was less than 300 nM each time.
On to `CN1CCN(C(=O)c2ccc(-c3cc4nccc(-c5ccc(N6CCCC6)c(C#N)c5)c4o3)cc2)CC1` [Compound A74], for which the IC50 (on IKKε; in assay [1]) was less than 300 nM in each case.
In the case of `CN1CCN(C(=O)c2ccc(-c3cc4nccc(-c5ccc(N6CCOCC6)c(C#N)c5)c4o3)cc2)CC1` [Compound A76], the IC50 (at IKKε; in assay [1]) was less than 300 nM in each case.
